This is an account of results in patent US20240002350A1, “PROTEIN AND LIPID THERAPEUTIC TARGETS” (UNIVERSITY OF PITTSBURGH-OF THE COMMONWEALTH SYSTEM OF …, priority 2020, published 2024).

The subject of one experiment is neurons. As to the kind of experiment: Severe mechanical stretch injury in neurons. As to conditions: 3-4 psi; Fer-1 0.4 μM, Triacsin C 10 μM, baicalein 5 μM. It counts as cell-based, rat. On the procedure: Mean+SD, N=4/group, *p<0.05 vs 0 h. […] Mean±SD, N=3-4/group, *p<0.05 vs control, #p<0.05 vs vehicle. […] Mean+SD, N=4/group, *p<0.05 vs vehicle.
Time course studies (0, 4, 8, 24 and 72 h) of TBI-induced changes in i) PE oxidation (oxidative lipidomics); ii) expression and activity of 15LOX, PEBP1, ACSL4, LPCAT3, iPLA2β and GPX4 (western blot); iii) formation of 15LOX/PEBP1 complexes (dual object recognition); and iv) GSH levels (fluorescent assay) will be performed as follows. An established model of in vitro TBI, severe mechanical stretch injury in primary cortical neurons, can be used. In brief, cortical neurons are cultured on 0.05% poly-D-lysine hydrobromide coated silicone substrate wells, and subjected to a computer controlled quantifiable mechanical insult by displacing the silicone substrate over a hollowed platform. In vivo TBI is induced by severe CCI (6-mm impactor tip, velocity of ±0.2 m/secs, deformation depth of 2.5 mm, impact duration of 50 msecs) to left parietal cortex in male and female PND 17 rats. To maximize rigor and reproducibility, animals are assigned to either sham (anesthesia and craniotomy) or CCI groups by block randomization. To ensure appropriate sample size for robustness, power analyses are performed in each experimental context. A sample size of 5 is preferred to detect a 25% difference in PE-OOH between CCI and control based on standard deviation observed in the experiments with an alpha of 0.05 and power of 0.80. Group assignments are blinded to the investigators who perform biochemical and histological endpoints. Statistical differences are analyzed using one-way ANOVA with post-hoc comparisons between groups if overall p<0.05 as appropriate. To address biological variability, both sexes are included.

The next experiment deals with 15LOX/PEBP1. As to the kind of experiment: Potency of 15LOX/PEBP1 inhibitors with anti-ferroptotic effect (Table 1). It counts as cell-based. The text has this:
Development and testing of new compounds that inhibit 15LOX/PEBP1 complex activity. A combination of computational and experimental studies are used. […] Computer modeling considers specific features of organization of 15LOX/PEBP1 complexes and positioning of AA-PE as well as regio-specific oxygenation of AA-residues at 15th carbon. […] It has been shown that: i) binding interface of 15LOX in 15LOX/PEBP1 complex includes a helix on 15LOX (α2) and kinase binding epitope (D144, H145, R146) on PEBP1 (FIG. 8); and ii) interfacial interactions play a pivotal role in allosterically altering conformational dynamics of 15LOX in complex, and its substrate specificity. Analysis of change in access to catalytic site upon PEBP1 binding, using elastic network models indicates needed sites at 15LOX/PEBP1 binding interface. Dynamics simulations are also performed, for 15LOX alone and 15LOX/PEBP1 complex. An effective inhibitor, NCG-01, with in vivo activity has been indicated. Several other 15LOX/PEBP1 inhibitors with anti-ferroptotic effect (FIG. 9) have been identified. To test the effectiveness of compounds identified from the computational screen, RSL3 and mechanical stretch models with LDH and PI assays as a primary outcome are performed. The compounds that inhibit cell death by at least 50% are then evaluated for their effects on AA-PE and AA oxidation by 15LOX/PEBP1 complex and 15LOX alone, respectively, by LC-MS. Evaluation of the effect of compounds in suppressing AA-PE-OOH formation in cells upon proferroptotic stimuli is also performed.

As to `CCOC(=O)c1ccc(NC2CCCCC2)c(N)c1` [Fer-1], in the experiment on neurons, the “cell death after severe mechanical stretch injury” value is “rescued”. `CC(C)(C)c1ccc(CSc2nc(-c3ccccc3)cn2-c2cccc(F)c2)cc1` [Compound 45, 2-((4-(tert-butyl)benzyl)thio)-1-(3-fluorophenyl)-4-phenyl-1H-imidazole]: the Potency entry in the experiment with 15LOX/PEBP1 is “+ (+ > 1 μM)”. In the case of `Fc1cccc(-n2cc(-c3ccccc3)nc2NCc2ccc(C(F)(F)F)c(Br)c2)c1` [Compound 66, N-(3-bromo-4-(trifluoromethyl)benzyl)-1-(3-fluorophenyl)-4-phenyl-1H-imidazol-2-amine], the Potency result in the experiment with 15LOX/PEBP1 is listed as “++ (++ = 101-1000 nM)”.

In the case of `Fc1ccc(-n2cc(-c3ccccc3)nc2SCc2ccc(C(F)(F)F)cc2)cc1` [Compound 11, 1-(4-fluorophenyl)-4-phenyl-2-((4-(trifluoromethyl)benzyl)thio)-1H-imidazole], the Potency entry in the experiment on 15LOX/PEBP1 was “+ (+ > 1 μM)”. On to `Cc1cccc(CSc2nc(-c3ccccc3)cn2-c2cccc(F)c2)c1` [Compound 43, 1-(3-fluorophenyl)-2-((3-methylbenzyl)thio)-4-phenyl-1H-imidazole], for which the Potency result in the experiment on 15LOX/PEBP1 is recorded as “+ (+ > 1 μM)”. On the same count and under the same terms, the entry for `Fc1cccc(-n2cc(-c3ccccc3)nc2SCc2ccccc2)c1` [Compound 37, 2-(benzylthio)-1-(3-fluorophenyl)-4-phenyl-1H-imidazole] is “+ (+ > 1 μM)”; for `COc1cccc(-n2cc(-c3ccccc3)nc2SCc2ccc(C(F)(F)F)cc2)c1` [Compound 29, 1-(3-methoxyphenyl)-4-phenyl-2-((4-(trifluoromethyl)benzyl)thio)-1H-imidazole] it is “+ (+ > 1 μM)”.

Take `CC(Sc1nc(-c2ccccc2)cn1-c1cccc(F)c1)c1ccc(C(F)(F)F)cc1` (stereo not drawn) [Compound 54, 1-(3-fluorophenyl)-4-phenyl-2-((1-(4-(trifluoromethyl)phenyl)ethyl)thio)-1H-imidazole]: the Potency result in the experiment with 15LOX/PEBP1 is on record as “+ (+ > 1 μM)”. The same measure, in the same setting: the entry for `C[S+](=O)([O-])c1cccc(-n2cc(-c3ccccc3)nc2SCc2ccc(C(F)(F)F)cc2)c1` [Compound 23, 1-(3-(methylsulfonyl)phenyl)-4-phenyl-2-((4-(trifluoromethyl)benzyl)thio)-1H-imidazole] is “+ (+ > 1 μM)”; for `Fc1cccc(-n2cc(-c3ccccc3)nc2SCc2cccc(C(F)(F)F)c2)c1` [Compound 35, 1-(3-fluorophenyl)-4-phenyl-2-((3-(trifluoromethyl)benzyl)thio)-1H-imidazole] it is “+ (+ > 1 μM)”. On the same count and under the same terms, with `FC(F)(F)c1ccc(CSc2nc(-c3ccc(C(F)(F)F)cc3)cn2-c2ccccc2)cc1` [Compound 6, 1-phenyl-2-((4-(trifluoromethyl)benzyl)thio)-4-(4-(trifluoromethyl)phenyl)-1H-imidazole] the entry was “+ (+ > 1 μM)”; with `Fc1cccc(-n2cc(-c3ccccc3)nc2SCc2ccc(C(F)F)cc2)c1` [Compound 52, 2-((4-(difluoromethyl)benzyl)thio)-1-(3-fluorophenyl)-4-phenyl-1H-imidazole], “+ (+ > 1 μM)”; with `Fc1ccccc1-n1cc(-c2ccccc2)nc1SCc1ccc(C(F)(F)F)cc1` [Compound 14, 1-(2-fluorophenyl)-4-phenyl-2-((4-(trifluoromethyl)benzyl)thio)-1H-imidazole], “+ (+ > 1 μM)”. Still for that read-out and setting: the entry for `Fc1cccc(-n2cc(-c3ccccc3)nc2SCc2ccc(C(F)(F)F)cc2F)c1` [Compound 48, 2-((2-fluoro-4-(trifluoromethyl)benzyl)thio)-1-(3-fluorophenyl)-4-phenyl-1H-imidazole] is “+ (+ > 1 μM)”; for `FC(F)(F)c1ccc(CSc2nc(-c3ccccc3)cn2-c2ccccc2)cc1` [Compound 20, 1,4-diphenyl-2-((4-(trifluoromethyl)benzyl)thio)-1H-imidazole] it is “+ (+ > 1 μM)”; for `Fc1cccc(-n2cc(-c3ccccc3)nc2SCc2ccc(Cl)cc2)c1` [Compound 42, 2-((4-chlorobenzyl)thio)-1-(3-fluorophenyl)-4-phenyl-1H-imidazole] it is “+ (+ > 1 μM)”. As to `FC(F)(F)c1ccc(CSc2nc(-c3ccccc3)cn2-c2cccc(C(F)(F)F)c2)cc1` [Compound 25, 4-phenyl-2-((4-(trifluoromethyl)benzyl)thio)-1-(3-(trifluoromethyl)phenyl)-1H-imidazole], the Potency entry in the experiment with 15LOX/PEBP1 is reported as “+ (+ > 1 μM)”. Same read-out and setting: with `Cc1cccc(-n2cc(-c3ccccc3)nc2SCc2ccc(C(F)(F)F)cc2)c1` [Compound 22, 4-phenyl-1-(m-tolyl)-2-((4-(trifluoromethyl)benzyl)thio)-1H-imidazole] the entry was “+ (+ > 1 μM)”; with `Fc1cccc(-n2cc(-c3ccc(Br)cc3)nc2SCc2ccccc2)c1` [Compound 27, 2-(benzylthio)-4-(4-bromophenyl)-1-(3-fluorophenyl)-1H-imidazole], “+ (+ > 1 μM)”; with `Fc1cccc(-n2cc(-c3ccccc3)nc2SCc2ccccc2C(F)(F)F)c1` [Compound 41, 1-(3-fluorophenyl)-4-phenyl-2-((2-(trifluoromethyl)benzyl)thio)-1H-imidazole], “+ (+ > 1 μM)”.

Turning to `N#Cc1ccc(CSc2nc(-c3ccccc3)cn2-c2cccc(F)c2)cc1` [Compound 55, 4-(((1-(3-fluorophenyl)-4-phenyl-1H-imidazol-2-yl)thio)methyl)benzonitrile], the Potency entry in the experiment on 15LOX/PEBP1 is “+ (+ > 1 μM)”. As for `Fc1cccc(-n2cc(-c3ccccc3)nc2SCc2cccc(Br)c2)c1` [Compound 46, 2-((3-bromobenzyl)thio)-1-(3-fluorophenyl)-4-phenyl-1H-imidazole], in the experiment on 15LOX/PEBP1, the Potency entry is on record as “+ (+ > 1 μM)”. Same read-out and setting: the entry for `FC(F)(F)c1ccc(CSc2nc(-c3ccccc3)cn2-c2cccc(Br)c2)cc1` [Compound 24, 1-(3-bromophenyl)-4-phenyl-2-((4-(trifluoromethyl)benzyl)thio)-1H-imidazole] is “+ (+ > 1 μM)”. The same measure, in the same setting: with `Fc1cccc(-n2cc(-c3ccccc3)nc2SCc2ccc(Br)cc2)c1` [Compound 34, 2-((4-bromobenzyl)thio)-1-(3-fluorophenyl)-4-phenyl-1H-imidazole] the entry was “+ (+ > 1 μM)”; with `CC(=O)Nc1ccc(CSc2nc(-c3ccccc3)cn2-c2cccc(F)c2)cc1` [Compound 49, N-(4-(((1-(3-fluorophenyl)-4-phenyl-1H-imidazol-2-yl)thio)methyl)phenyl)acetamide], “+ (+ > 1 μM)”; with `Fc1cccc(-n2cc(-c3ccccc3)nc2NCc2ccc(C(F)(F)F)c(Cl)c2)c1` [Compound 68, N-(3-chloro-4-(trifluoromethyl)benzyl)-1-(3-fluorophenyl)-4-phenyl-1H-imidazol-2-amine], “++ (++ = 101-1000 nM)”. As to `FC(F)(F)Oc1cccc(-n2cc(-c3ccccc3)nc2SCc2ccc(C(F)(F)F)cc2)c1` [Compound 30, 4-phenyl-1-(3-(trifluoromethoxy)phenyl)-2-((4-(trifluoromethyl)benzyl)thio)-1H-imidazole], in the experiment on 15LOX/PEBP1, the Potency entry is on record as “+ (+ > 1 μM)”.
